From patent US7435837B2, “Dihydrobenzofuranyl alkanamine derivatives and methods for using same” (Wyeth, priority 2003, dated 2008)
Read-outs that look alike come from different tables or passages of the source.

How the values were obtained:
human 5-HT2C receptor = target: T1, human 5-HT2C receptor (Homo sapiens, UniProt P28335); test: 5-HT2C receptor-stimulated calcium mobilization (FLIPR) in CHO cells; type: cell-based; details: for Emax: CHO; for EC50: calcium mobilization, CHO cells stably expressing human 5-HT2C, read-out: 5-HT2C Function EC50;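 on all read-outs here: Fluo-3-AM fluorescence read on FLIPR every 1 s, agonist added after 10 baseline reads, response taken as peak minus lowest raw fluorescence count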
T1 sequence (P28335 33-458): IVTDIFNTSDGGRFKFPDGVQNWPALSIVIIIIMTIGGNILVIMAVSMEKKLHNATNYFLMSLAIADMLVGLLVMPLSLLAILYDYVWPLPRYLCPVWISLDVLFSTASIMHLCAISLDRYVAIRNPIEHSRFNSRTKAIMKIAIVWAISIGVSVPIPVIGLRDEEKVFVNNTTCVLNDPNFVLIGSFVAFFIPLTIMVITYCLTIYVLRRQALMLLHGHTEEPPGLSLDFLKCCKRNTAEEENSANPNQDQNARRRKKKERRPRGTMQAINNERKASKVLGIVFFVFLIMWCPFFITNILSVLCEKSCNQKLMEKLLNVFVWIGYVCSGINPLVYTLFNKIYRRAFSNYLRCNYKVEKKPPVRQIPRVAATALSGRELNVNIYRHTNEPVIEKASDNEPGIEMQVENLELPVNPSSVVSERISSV

[1] = target: T2, human 5-hydroxytryptamine-2C (h5-HT2C) receptor (Homo sapiens, UniProt P28335); test: [125I]DOI binding to membranes of CHO cells expressing the human 5-HT2C receptor; details: [125I]DOI radioligand, CHO cell membranes, room temperature 60 min; read-out: 5-HT2C Affinity Ki
T2 construct: expressed in transfected cells; host or cells: CHO (Chinese Hamster Ovary) cells; membranes
T2 sequence (P28335 33-458): T1 sequence (P28335 33-458)

[2] = percentage of the response observed with a maximally effective concentration of 5-HT, read-out: 5-HT2C Function Emax (%)
[3] = percentage of the response observed with a maximally effective concentration of 5-HT

Structure (SMILES)	Emax (human 5-HT2C receptor; [2])	EC50 (human 5-HT2C receptor)	Ki [1]	Emax (human 5-HT2C receptor; read-out: 5-HT2C Function Emax (%), percentage of the response observed with a maximally effective concentration of 5-HT)	5-HT2C Function Emax (%) (human 5-HT2C receptor; [3])
CNCC1Cc2cc(C)cc(-c3ccc(F)cc3)c2O1 (racemic) [Example 482, (±)-{[7-(4-fluorophenyl)-5-methyl-2,3-dihydro-1-benzofuran-2-yl]methyl}methylamine]	80%	143 nM	7 nM	–	–
CNCC1Cc2cc(F)cc(-c3ccc(Cl)cc3Cl)c2O1 (racemic) [Example 445, (±)-[7-(2,4-dichlorophenyl)-5-fluoro-2,3-dihydro-1-benzofuran-2-yl]methyl}methylamine]	–	1 nM	0.48 nM	90%	–
CNCC1Cc2cc(C)cc(-c3ccc(OC)cc3)c2O1 (racemic) [Example 483, (±)-{[7-(4-methoxyphenyl)-5-methyl-2,3-dihydro-1-benzofuran-2-yl]methyl}methylamine]	80%	58 nM	5 nM	–	–
CC(C)(C)c1cc(Cl)cc2c1OC(CN)C2 (racemic) [Example 27, (±)-1-(7-tert-butyl-5-chloro-2,3-dihydro-1-benzofuran-2-yl)methanamine]	80%	2020 nM	39 nM	–	–
COc1ccc(OC)c(-c2cc(F)cc3c2OC(CN)C3)c1 (racemic) [Example 223, (±)-{[7-(2,5-dimethoxyphenyl)-5-fluoro-2,3-dihydro-1-benzofuran-2-yl]methyl}amine]	80%	30 nM	10 nM	–	–
CNCC1Cc2cc(F)cc(-c3cccnc3)c2O1 (racemic) [Example 459, (±)-[(5-fluoro-7-pyridin-3-yl-2,3-dihydro-1-benzofuran-2-yl)methyl]methylamine]	90%	16 nM	24 nM	–	–
NCC1Cc2cc(F)cc(-c3cccnc3)c2O1 (single isomer, unassigned; (-)) [Example 207, (−)-[(5-fluoro-7-pyridin-3-yl-2,3-dihydro-1-benzofuran-2-yl)methyl]amine]	80%	112 nM	128 nM	–	–
NCC1Cc2cc(Cl)cc(-c3cccc(F)c3F)c2O1 (racemic) [Example 244, (±)-{[5-chloro-7-(2,3-difluorophenyl)-2,3-dihydro-1-benzofuran-2-yl]methyl}amine]	90%	52 nM	0.74 nM	–	–
CCNCC1Cc2cccc(-c3c(Cl)cccc3Cl)c2O1 (racemic) [Example 390, (±)-N-{[7-(2,6-dichlorophenyl)-2,3-dihydro-1-benzofuran-2-yl]methyl}ethanamine]	80%	2 nM	1.8 nM	–	–
CNCC1Cc2cccc(-c3c(Cl)cccc3Cl)c2O1 (racemic) [Example 433, (±)-[(N-methyl-1-[7-(2,6-dichlorophenyl)-2,3-dihydro-1-benzofuran-2-yl]methanamine]	100%	1 nM	3.5 nM	–	–
NCC1Cc2cccc(Cc3ccccc3)c2O1 (single isomer, unassigned; (+)) [Example 16, (+)-1-(7-benzyl-2,3-dihydro-1-benzofuran-2-yl)methanamine]	65%	451 nM	274 nM	–	–
COc1ccccc1-c1cc(Cl)cc2c1OC(CN)C2 (racemic) [Example 242, (±)-{[5-chloro-7-(2-methoxyphenyl)-2,3-dihydro-1-benzofuran-2-yl]methyl}amine]	90%	48 nM	3 nM	–	–
Cc1ccccc1-c1cccc2c1OC(CN)C2 (single isomer, unassigned; (-)) [Example 49, (−)-1-[7-(2-methylphenyl)-2,3-dihydro-1-benzofuran-2-yl]methanamine]	–	132 nM	10 nM	–	80%
COc1ccc(-c2cc(C)cc3c2OC(CN)C3)cc1 (racemic) [Example 293, (±)-{[7-(4-methoxyphenyl)-5-methyl-2,3-dihydro-1-benzofuran-2-yl]methyl}amine]	90%	7 nM	3.8 nM	–	–
COc1cc2c(c(-c3ccccc3F)c1)OC(CN)C2 (racemic) [Example 356, (±)-{[7-(2-fluorophenyl)-5-methoxy-2,3-dihydro-1-benzofuran-2-yl]methyl}amine]	100%	63 nM	0.63 nM	–	–
NCC1Cc2cccc(-c3ccccc3)c2O1 (single isomer, unassigned; (+)) [Example 37]	100%	1 nM	1 nM	–	–
NCC1Cc2cccc(-c3c(Cl)cccc3Cl)c2O1 (single isomer, unassigned; (-)) [Example 141, (−)-1-[7-(2,6-dichlorophenyl)-2,3-dihydro-1-benzofuran-2-yl]methanamine]	90%	0.03 nM	0.07 nM	–	–
COc1ccc(-c2cccc3c2OC(CN)C3)c(OC)c1 (single isomer, unassigned; (-)) [Example 144, (−)-1-[7-(2,4-dimethoxyphenyl)-2,3-dihydro-1-benzofuran-2-yl]methanamine]	90%	4 nM	6.1 nM	–	–
NCC1Cc2cccc(-c3cccc(F)c3)c2O1 (single isomer, unassigned; (+)) [Example 131, (+)-1-[7-(3-fluorophenyl)-2,3-dihydro-1-benzofuran-2-yl]methanamine]	–	34 nM	1.5 nM	–	90%
CNCC1Cc2cccc(-c3ccc(C)cc3)c2O1 (racemic) [Example 418, (±)-[(N-methyl-1-[7-(4-methylphenyl)-2,3-dihydro-1-benzofuran-2-yl]methanamine]	80%	59 nM	1.1 nM	–	–
NCC1Cc2cc(C(F)(F)F)cc(-c3ccsc3)c2O1 (racemic) [Example 342, (±)-{[7-thien-3-yl-5-(trifluoromethyl)-2,3-dihydro-1-benzofuran-2-yl]methyl}amine]	80%	590 nM	28 nM	–	–
Cc1cccc(C)c1-c1cc(Cl)cc2c1OC(CN)C2 (single isomer, unassigned; (-)) [Example 261, (−)-{[5-chloro-7-(2,6-dimethylphenyl)-2,3-dihydro-1-benzofuran-2-yl]methyl}amine]	90%	67 nM	0.5 nM	–	–
COc1ccc(C)cc1-c1cc(F)cc2c1OC(CN)C2 (racemic) [Example 225, (±)-{[5-fluoro-7-(2-methoxy-5-methylphenyl)-2,3-dihydro-1-benzofuran-2-yl]methyl}amine]	90%	3 nM	1.2 nM	–	–
NCC1Cc2cccc(-c3ccc(Cl)cc3)c2O1 (single isomer, unassigned; (-)) [Example 78, (−)-1-[7-(4-chlorophenyl)-2,3-dihydro-1-benzofuran-2-yl]methanamine]	–	161 nM	41 nM	–	90%
CNCC1Cc2cccc(-c3cccc(C)c3)c2O1 (racemic) [Example 414, (±)-[(N-methyl-1-[7-(3-methylphenyl)-2,3-dihydro-1-benzofuran-2-yl]methanamine]	60%	781 nM	3.4 nM	–	–
Cc1c(Cl)cc(C(C)C)c2c1CC(CN)O2 (single isomer, unassigned; (+)) [Example 23, (+)-1-(5-chloro-7-isopropyl-4-methyl-2,3-dihydro-1-benzofuran-2-yl)methanamine]	–	73 nM	9 nM	–	80%
